{
  "source": "patent US20230390373A1",
  "about": "“A LIVE STRAIN OF STAPHYLOCOCCUS AUREUS AND USES THEREOF” (priority 2020, published 2023)",
  "key": {"[1]": {"tested_on": "mouse bone marrow derived dendritic cells (BMDC)", "experiment": "IL-1β release / inflammasome activation in infected BMDC", "format": "cell-based", "details": "MOI=20, 6 hours; for IL-1β production/release in S. aureus infected BMDC: MCC950 10 μM, Cytochalasin D 5 μM, ZM241385 10 μM", "experimental": "(§1) Bone marrow cells extracted from femur of 8-12 weeks old female BALB/c mice were culture in RPMI-1640 medium supplemented with L-glutamine, 10% heat inactivated-FBS, 1×penicillin/streptomycin, 10 mM HEPES, 50 μM-β mercaptoethanol, 20 ng/ml mGM-CSF (PeproTech) for up to 7 days differentiation.\nOne day before bacterial infection experiments, S. aureus strains were inoculated and cultured with BHI broth for overnight. Next day, overnight culture of bacteria strains were sub-cultured in fresh BHI broth at a dilution of 1:100 and grown at 37° C. Following 3 hours of culturing, S. aureus were harvested and washed for two to three times in cold PBS by centrifugation. Finally, S. aureus strains were diluted with desired volume of PBS, yielding an OD600 of 0.5 (1×10^8 CFU/ml), and further centrifuged and resuspended at desired bacterial concentration. The number of bacteria was determined by serial dilution and colony formation on BHI agar plates. Mammalian cells were plated in 24-well plates at a number of 4×10^5 per well and infected with S. aureus strains in antibiotic free medium at the indicated MOI.\n(§2) Culture supernatants of relevant cells were collected and centrifuged at 13000 rpm for 4 min to get rid of cell debris and bacteria. Levels of LDH in culture supernatants were measured by CytoTox 96 Non-Radioactive Cytotoxicity Assay kit (Promega). Cell viability was measured by the CellTiter Glo Luminescent Cell Viability Assay (Promega). ELISA assay was conducted according manufactures' instructions.\nFor detection of cleaved form of caspase-1, cell culture supernatants were precipitated by methanol-chloroform method. Briefly, supernatant was mixed with an equal volume of methanol and 0.25 volumes of chloroform, vortexed and centrifuge for 15 min at 20000 g. The upper phase was discarded and the interphase was mixed with methanol. After centrifugation for 5 min at 20000 g, the pellet was resuspended in 2×SDS-PAGE sample buffer and boiled for 5 min at 100° C. Protein samples were separated by 15% SDS-PAGE gels and were transferred onto PVDF membranes. Total cell lysates lysed by RIPA buffer (50 mM Tris-Cl, pH 7.4, 150 mM NaCl, 1% Triton X-100, 0.1% SDS, 1% sodium deoxycholate and 0.5 mM EDTA) supplemented with 1× protease inhibitor cocktail (Roche) were boiled for 5 min at 100° C. Lysate aliquots were separated by SDS-PAGE gels and transferred onto PVDF membranes. Blots were probed with primary antibody: rabbit anti-caspase-1 (1:1000 dilution, 179515 from Abcam, USA), mouse anti-β actin (1:5000 dilution, A5316 from Sigma). Anti-rabbit or mouse antibodies conjugated to HRP were used as secondary reagents."}, "NLRP3": {"tested_on": "NLRP3", "experiment": "NLRP3 expression in BMDC (qPCR, immunoblot)", "format": "cell-based, mouse", "details": "4 hours", "experimental": "as §1\nFor detection of cleaved form of caspase-1, cell culture supernatants were precipitated by methanol-chloroform method. Briefly, supernatant was mixed with an equal volume of methanol and 0.25 volumes of chloroform, vortexed and centrifuge for 15 min at 20000 g. The upper phase was discarded and the interphase was mixed with methanol. After centrifugation for 5 min at 20000 g, the pellet was resuspended in 2×SDS-PAGE sample buffer and boiled for 5 min at 100° C. Protein samples were separated by 15% SDS-PAGE gels and were transferred onto PVDF membranes. […]\nTotal RNA was extracted from cells using TRIzol Reagent (Invitrogen) and 1 μg total RNA was used for reverse transcription (Takara) according to manufactures' instructions. The cDNA was then used for quantitative RT-PCR to analyze relevant mRNA expression using Applied Biosystems StepOnePlus™ Real-Time PCR System and SYBR Premix Ex Taq kit (Takara) according to the manufacturer's instruction. The data were normalized to GAPDH and fold change in gene expression was calculated by comparative CT method (2^−ΔΔCT)."}, "HMDM": {"tested_on": "HMDM", "experiment": "Cell viability assay of infected HMDM", "format": "cell-based, human", "details": "MOI=100, 8 hours, Z-VADFMK 25 μM, VX765 20 μM, NSA 5 μM", "experimental": "Human peripheral blood mononuclear cells (PBMC) were isolated from human buffy coat (provided by Department of Microbiology, The University of Hong Kong, Li Ka Shing Faculty of Medicine) by Ficoll-Paque gradient protocol. In brief, 30 mL of 1:1 PBS diluted buffy coat from healthy donors were layered on Ficoll-Paque Plus (GE Healthcare, Life Sciences) and centrifuged at 450×g for 30 min at room temperature. Separated layers of PBMC were collected and then washed 2 times with RPMI-1640 medium. After washing, the cells were resuspended in 4 mL red blood cell lysing buffer (Biolegend, RBC Lysis Buffer) and incubated for 5 min at room temperature. Following two subsequent washes, the cell pellet was resuspended in RPMI-1640 media supplemented with 10% FBS, 100 U/ml penicillin and 0.1 mg/ml streptomycin for further infection experiments. To differentiate human monocytes-derived macrophages (HMDM), isolated PBMC were seeded on poly-L-lysine coated coverslips in 24 well plate and cultured in RPMI-1640 media supplemented with L-glutamine, 10% FBS, 1×penicillin/streptomycin, 10 mM HEPES, 50 ng/mL hGM-CSF (PeproTech) for up to 7 days differentiation.\nOne day before bacterial infection experiments, S. aureus strains were inoculated and cultured with BHI broth for overnight. Next day, overnight culture of bacteria strains were sub-cultured in fresh BHI broth at a dilution of 1:100 and grown at 37° C. Following 3 hours of culturing, S. aureus were harvested and washed for two to three times in cold PBS by centrifugation. […] The number of bacteria was determined by serial dilution and colony formation on BHI agar plates. […]\nas §2, with “ELISA assay was conducted according manufactures' instructions.” left out"}, "BALB/c mice": {"tested_on": "BALB/c mice", "experiment": "Th17 response in inhibitor-pretreated mice infected with wild type S. aureus", "format": "in vivo", "details": "splenocytes re-stimulated MOI=5, 4 days", "experimental": "Protocol for harvest and calculation of wild type and variant S. aureus strains was the same as described above. To induce systemic blood infection model of S. aureus in FIG. 1, 200 ul of bacterial suspension (1×10^7 CFU) was administered intravenously into naïve 6-wk-old female BALB/c mice. To establish re-infection model in FIG. 5, mice were intraperitoneally infected with WT S. aureus (USA300), adsA mutant strain or WT S. aureus (USA300)/adsA mutant strain (4×10^7 CFU) for a total of 3 times at 7 days interval. After 14 days convalescent period, mice were re-challenged with lethal dose of WT USA300 S. aureus (4×10^7 CFU) or sublethal dose of WT USA300 S. aureus (2×10^7 CFU). Upon bacterial infection, health conditions of mice were frequently monitored in compliance with humane end points (HEP) form. To measure staphylococcal burden in blood, after 2 h of i.v. infection, mice were anaesthetized by intraperitoneal injection of 80-120 mg ketamine and 3-6 mg xylazine per kilogram of body weight and blood was collected via tail vein. Blood samples were incubated on ice in 0.5% saponin/PBS for lysis of host cells. Later on, serial dilutions were performed on BHI agar plates for colony formation. To enumerate bacteria in tissues, mice were euthanized by CO2 inhalation, organs including lungs, spleens and kidneys were harvested and homogenized in 1% Triton X-100/PBS. Aliquots of homogenates were serially diluted and spread on BHI agar plates for colony formation. For histopathology, kidneys were incubated in 4% paraformaldehyde (PFA) at room temperature for 24 h. Tissues were embedded in paraffin, thin sectioned, stained with hematoxylin-eosin, and examined by microscopy.\nAnimals were sacrificed at indicated time points in re-infection model. Spleens were harvested and grinded for cells suspension. After centrifugation, splenocytes were experienced red blood cell lysing, washes and filtering, and single cells suspension was cultured in RPMI-1640 media supplemented with 10% FBS, 100 U/ml penicillin and […]. […]"}},
  "note": "Entries after “also recorded” stand apart in the source; their conditions may differ. Residues, ends and D or L forms follow the SMILES beside them. *: point of attachment. Cbz = O=C(OCc1ccccc1)*; CH2F = FC*",
  "data": [
    {"compound": "Nc1ncnc2c1ncn2[C@@H]1O[C@H](CO)[C@@H](O)[C@H]1O", "note": "[adenosine, Adenosine]", "values": [
      {"measurement": "inflammasome activation (IL-1β release and immunoblot) in BMDC infected with adsA mutant", "setting": "[1]; pretreated with adenosine 100 μM", "value": "impaired inflammasome activation"},
      {"measurement": "expression level of NLRP3 (qPCR)", "setting": "NLRP3; BMDC activated by adsA mutant S. aureus or Pam3CSK4 / LPS (100 ng/ml), adenosine 100 μM", "value": "decreased the expression level of NLRP3"},
      {"measurement": "NLRP3 expression at protein level", "setting": "NLRP3; BMDC pre-treated with a series of dose of adenosine, LPS 100 ng/ml", "value": "inhibited NLRP3 expression at protein level in a dose-dependent manner"}
    ]},
    {"compound": "COC(=O)C[C@H](NC(=O)[C@H](C)NC(=O)[C@@H](NC(=O)OCc1ccccc1)C(C)C)C(=O)CF", "note": "[Z-VAD-FMK] (Cbz-Val-Ala-Asp(OMe)-CH2F)", "values": [
      {"measurement": "effect on S. aureus / adsA mutant-induced cell death", "setting": "HMDM", "value": "dramatically decrease adsA mutant-induced cell death"}
    ]},
    {"compound": "Cn1c(=O)c2c(ncn2C)n(C)c1=O", "note": "[caffeine, Caffeine]", "values": [
      {"measurement": "Th17 response / IL-17A production vs vehicle control", "setting": "BALB/c mice", "value": "did not have any influence on Th17 immunity"}
    ]},
    {"compound": "CC(C)(O)c1coc(S(=O)(=O)NC(=O)Nc2c3c(cc4c2CCC4)CCC3)c1", "note": "[MCC950]", "values": [
      {"measurement": "IL-1β production/release in S. aureus infected BMDC", "setting": "[1]", "value": "largely dampen IL-1β production; also recorded: almost prevented the release of IL-1β; also recorded: had little IL-1β production"},
      {"measurement": "Th17 response / IL-17A production vs vehicle control", "setting": "BALB/c mice", "value": "decreased IL-17A production"}
    ]},
    {"compound": "C=C1[C@@H](C)[C@H]2[C@H](Cc3ccccc3)NC(=O)[C@]23[C@H](OC(C)=O)/C=C/[C@@](C)(O)C(=O)[C@@H](C)C/C=C/[C@H]3[C@@H]1O", "note": "[Cytochalasin D]", "values": [
      {"measurement": "IL-1β production/release in S. aureus infected BMDC", "setting": "[1]", "value": "nearly suppressed IL-1β production"},
      {"measurement": "IL-1β production/release in S. aureus infected BMDC", "setting": "[1]; listed as cytochalasin D", "value": "had little IL-1β production"}
    ]},
    {"compound": "CCO[C@@H]1OC(=O)C[C@@H]1NC(=O)[C@@H]1CCCN1C(=O)[C@@H](NC(=O)c1ccc(N)c(Cl)c1)C(C)(C)C", "note": "[VX765]", "values": [
      {"measurement": "effect on S. aureus / adsA mutant-induced cell death", "setting": "HMDM", "value": "dramatically decrease adsA mutant-induced cell death"},
      {"measurement": "Th17 response / IL-17A production vs vehicle control", "setting": "BALB/c mice", "value": "decreased IL-17A production"}
    ]},
    {"compound": "Nc1nc(NCCc2ccc(O)cc2)nc2nc(-c3ccco3)nn12", "note": "[ZM241385]", "values": [
      {"measurement": "IL-1β production/release in S. aureus infected BMDC", "setting": "[1]", "value": "improved IL-1β production"}
    ]},
    {"compound": "COc1nccnc1NS(=O)(=O)c1ccc(NC(=O)/C=C/c2ccc([N+](=O)[O-])s2)cc1", "note": "[necrosulfonamide, Necrosulfonamide]", "values": [
      {"measurement": "effect on S. aureus / adsA mutant-induced cell death", "setting": "HMDM", "value": "did not have apparent effect on S. aureus induced cytotoxicity"}
    ]}
  ]
}
